Experimental data reported in US8012979B2, “Compounds and their uses 707” (AstraZeneca AB, priority 2007, dated 2011).

System: not listed separately
Assay: GVS (Dynamic Vapour Sorption) determination
Format: physicochemical
Details: at 80% RH (±0.2%); crystalline polymorph A
Description: GVS profiles were measured using a Dynamic Vapour Sorption DVS-1 instrument. The solid sample ca. 1-5 mg was placed into a glass vessel and the weight of the sample was recorded during a dual cycle step method (40 to 90 to 0 to 90 to 0% relative humidity (RH), in steps of 10% RH).
For `Cc1ccc(C(=O)NC2CC2)cc1-c1ccc2c(=O)n(Cc3ccccc3)cc(C(=O)NCCN(C)C)c2c1` [Example 47, 2-Benzyl-6-(5-(cyclopropylcarbamoyl)-2-methylphenyl)-N-(2-(dimethylamino)ethyl)-1-oxo-1,2-dihydroisoquinoline-4-carboxamide], the GVS weight increase was 0.9 % w/w.

Target: T1, human active recombinant p38α-6His tagged (Homo sapiens, UniProt Q16539)
T1 construct: 6His
T1 sequence (Q16539 whole entry): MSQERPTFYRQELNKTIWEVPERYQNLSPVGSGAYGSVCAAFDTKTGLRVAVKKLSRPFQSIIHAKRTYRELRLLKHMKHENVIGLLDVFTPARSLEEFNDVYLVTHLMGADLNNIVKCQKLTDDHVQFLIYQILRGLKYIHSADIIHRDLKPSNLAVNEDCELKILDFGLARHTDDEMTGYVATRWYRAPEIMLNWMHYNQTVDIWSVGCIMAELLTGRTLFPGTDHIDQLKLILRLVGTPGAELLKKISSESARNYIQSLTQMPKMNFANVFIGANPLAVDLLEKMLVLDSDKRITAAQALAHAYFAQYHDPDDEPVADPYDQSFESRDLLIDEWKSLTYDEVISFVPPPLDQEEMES
Assay: p38 Alpha Enzyme Assay (AlphaScreen, biotinylated-ATF2 substrate)
Format: biochemical
Details: pre-incubated 4 hours at 37° C., reaction initiated with ATP; 0.5 nM enzyme; read-out: p38 pIC50 (converted)
With `Cc1ccc(C(=O)NC2CC2)cc1-c1ccc2c(=O)n(CC3CC3)cc(C(=O)N3CCC(N(C)C)CC3)c2c1` [Example 45, N-Cyclopropyl-3-(2-(cyclopropylmethyl)-(4-(dimethylamino)piperidine-1-carbonyl)-1-oxo-1,2-dihydroisoquinolin-6-yl)-4-methylbenzamide] the IC50 was 2.51 nM.
In the case of `CCNC(=O)c1ccc(C)c(-c2ccc3c(=O)n(Cc4ccccc4)ccc3c2)c1` [Example 2, 3-(2-Benzyl-1-oxo-1,2-dihydro-isoquinolin-6-yl)-N-ethyl-4-methyl-benzamide], the IC50 is reported as 7.94 nM.
In the case of `Cc1ccc(C(=O)NC2CC2)cc1-c1ccc2c(=O)n(CC3CCNCC3)ccc2c1` [Example 125, N-Cyclopropyl-4-methyl-3-(1-oxo-2-piperidin-4-ylmethyl-1,2-dihydro-isoquinolin-6-yl)-benzamide], the IC50 is reported as 63.1 nM.
Work on `Cc1ccc(C(=O)NC2CC2)cc1-c1ccc2c(=O)n(Cc3ccc(C(=O)NCCN4CCCC4)cc3)ccc2c1` [Example 22, N-Cyclopropyl-4-methyl-3-(1-oxo-2-(4-(2-(pyrrolidin-1-yl)ethylcarbamoyl)benzyl)-1,2-dihydroisoquinolin-6-yl)benzamide] yielded an IC50 of 0.794 nM.
`Cc1ccc(C(=O)NC2CC2)cc1-c1ccc2c(=O)n(Cc3ccc(C(=O)N4CCN(C)CC4)cc3)ccc2c1` [Example 20, N-Cyclopropyl-4-methyl-3-(2-(4-(4-methylpiperazine-1-carbonyl)benzyl)-1-oxo-1,2-dihydroisoquinolin-6-yl)benzamide] gave an IC50 of 1.26 nM.
In the case of `Cc1c(F)cc(C(=O)NC2CC2)cc1-c1ccc2c(=O)n(CC3CC3)cc(CN3CCN[C@H](C)C3)c2c1` [Example 107, (R)—N-Cyclopropyl-3-(2-(cyclopropylmethyl)-4-((3-methylpiperazin-1-yl)methyl)-1-oxo-1,2-dihydroisoquinolin-6-yl)-5-fluoro-4-methylbenzamide], the IC50 is reported as 0.794 nM.
`Cc1ccc(C(=O)NC2CC2)cc1-c1ccc2c(=O)n(CC3CC3)cc(C(=O)NCCCN3CCCC3)c2c1` [Example 44, 6-(5-(Cyclopropylcarbamoyl)-2-methylphenyl)-2-(cyclopropylmethyl)-1-oxo-N-(3-(pyrrolidin-1-yl)propyl)-1,2-dihydroisoquinoline-4-carboxamide] gave an IC50 of 25.1 nM.
Work on `Cc1c(F)cc(C(=O)NC2CC2)cc1-c1ccc2c(=O)n(CC3CC3)cc(CN3C[C@@H]4C[C@H]3CN4)c2c1` [Example 111, 3-(4-((1S,4S)-2,5-Diazabicyclo[2.2.1]heptan-2-ylmethyl)-2-(cyclopropylmethyl)-1-oxo-1,2-dihydroisoquinolin-6-yl)-N-cyclopropyl-5-fluoro-4-methylbenzamide] yielded an IC50 of 0.1 nM.
For `Cc1ccc(C(=O)NC2CC2)cc1-c1ccc2c(=O)n(Cc3ccc(C(=O)O)cc3)cc(CN3CCCN(C)CC3)c2c1` [Example 104, 4-((6-(5-(Cyclopropylcarbamoyl)-2-methylphenyl)-((4-methyl-1,4-diazepan-1-yl)methyl)-1-oxoisoquinolin-2(1H)-yl)methyl)benzoic acid], the IC50 was 0.2 nM.
For `Cc1ccc(C(=O)NC2CC2)cc1-c1ccc2c(=O)n(Cc3ccc(C(=O)N(C)CCCN(C)C)cc3)ccc2c1` [Example 21, N-Cyclopropyl-3-(2-(4-((3-(dimethylamino)propyl)(methyl)carbamoyl)benzyl)-1-oxo-1,2-dihydroisoquinolin-6-yl)-4-methylbenzamide], the IC50 was 3.16 nM.
`Cc1ccc(C(=O)NC2CC2)cc1-c1ccc2c(=O)n(Cc3ccccc3)cc(CN3CCCC3)c2c1` [Example 61, 3-(2-Benzyl-1-oxo-4-(pyrrolidin-1-ylmethyl)-1,2-dihydroisoquinolin-6-yl)-N-cyclopropyl-4-methylbenzamide] showed an IC50 of 10 nM.
Molecule `Cc1ccc(C(=O)NC2CC2)cc1-c1ccc2c(=O)n(CC3CC3)cc(CN3CCCN(CCO)CC3)c2c1` [Example 72, N-Cyclopropyl-3-(2-(cyclopropylmethyl)-4-((4-(2-hydroxyethyl)-1,4-diazepan-1-yl)methyl)-1-oxo-1,2-dihydroisoquinolin-6-yl)-4-methylbenzamide] has an IC50 of 0.398 nM.
With `Cc1c(F)cc(C(=O)NC2CC2)cc1-c1ccc2c(=O)n(CC3CC3)cc(CN3CCN(C)CC3)c2c1` [Example 76, N-Cyclopropyl-3-(2-(cyclopropylmethyl)-4-((4-methylpiperazin-1-yl)methyl)-1-oxo-1,2-dihydroisoquinolin-6-yl)-5-fluoro-4-methylbenzamide] the IC50 was 0.1 nM.
With `Cc1ccc(C(=O)NC2CC2)cc1-c1ccc2c(=O)n(Cc3cccc(OCCN4CCCC4)c3)ccc2c1` [Example 33, N-Cyclopropyl-4-methyl-3-{1-oxo-2-[3-(2-pyrrolidin-1-ylethoxy)benzyl]-1,2-dihydroisoquinolin-6-yl}benzamide] the IC50 was 2 nM.
`C=CCn1ccc2cc(-c3cc(C(=O)NC4CC4)ccc3C)ccc2c1=O` [Example 12, 3-(2-Allyl-1-oxo-1,2-dihydro-isoquinolin-6-yl)-N-cyclopropyl-4-methyl-benzamide] showed an IC50 of 7.94 nM.
In the case of `Cc1ccc(C(=O)NC2CC2)cc1-c1ccc2c(=O)n(Cc3ccccc3)cc(C(=O)NCCCN(C)C)c2c1` [Example 51, 2-Benzyl-6-{5-[(cyclopropylamino)carbonyl]-2-methylphenyl}-N-[3-(dimethylamino)propyl]-1-oxo-1,2-dihydroisoquinoline-4-carboxamide], the IC50 is reported as 2 nM.
Work on `Cc1c(F)cc(C(=O)NC2CC2)cc1-c1ccc2c(=O)n(CC3CC3)cc(CNCCCN(C)C)c2c1` [Example 77, N-Cyclopropyl-3-(2-(cyclopropylmethyl)-4-((3-(dimethylamino)propylamino)methyl)-1-oxo-1,2-dihydroisoquinolin-6-yl)-5-fluoro-4-methylbenzamide] yielded an IC50 of 1.58 nM.
Molecule `Cc1ccc(C(=O)NC2CC2)cc1-c1ccc2c(=O)[nH]ccc2c1` [Example 11, N-Cyclopropyl-4-methyl-3-(1-oxo-1,2-dihydro-isoquinolin-6-yl)-benzamide] has an IC50 of 25.1 nM.
For `Cc1ccc(C(=O)NC2CC2)cc1-c1ccc2c(=O)n(Cc3ccccc3)cc(C(=O)NCCN(C)C)c2c1` [Example 47, 2-Benzyl-6-(5-(cyclopropylcarbamoyl)-2-methylphenyl)-N-(2-(dimethylamino)ethyl)-1-oxo-1,2-dihydroisoquinoline-4-carboxamide], the IC50 was 1.26 nM.
`Cc1ccc(C(=O)NC2CC2)cc1-c1ccc2c(=O)n(CC3CC3)cc(CNC3CCN(C)CC3)c2c1` [Example 65, N-Cyclopropyl-3-(2-(cyclopropylmethyl)-4-((1-methylpiperidin-4-ylamino)methyl)-1-oxo-1,2-dihydroisoquinolin-6-yl)-4-methylbenzamide] showed an IC50 of 7.94 nM.
For `Cc1ccc(C(=O)NC2CC2)cc1-c1ccc2c(=O)n(Cc3ccccc3)cc(CCCN(C)C)c2c1` [Example 99, 3-(2-Benzyl-4-(3-(dimethylamino)propyl)-1-oxo-1,2-dihydroisoquinolin-6-yl)-N-cyclopropyl-4-methylbenzamide], the IC50 was 0.398 nM.
`Cc1ccc(C(=O)NC2CC2)cc1-c1ccc2c(=O)n(Cc3ccc(OCCN(C)C)nc3)ccc2c1` [Example 30, N-Cyclopropyl-3-(2-((6-(2-(dimethylamino)ethoxy)pyridin-3-yl)methyl)-1-oxo-1,2-dihydroisoquinolin-6-yl)-4-methylbenzamide] showed an IC50 of 1 nM.
`Cc1ccc(C(=O)NC2CC2)cc1-c1ccc2c(=O)n(Cc3ccc(Br)cc3)ccc2c1` [Example 3, 3-[2-(4-Bromo-benzyl)-1-oxo-1,2-dihydro-isoquinolin-6-yl]-N-cyclopropyl-4-methyl-benzamide] showed an IC50 of 2.51 nM.
In the case of `Cc1ccc(C(=O)NC2CC2)cc1-c1ccc2c(=O)n(CC3CC3)cc(CN3CCC(N4CCCCC4)CC3)c2c1` [Example 62, 3-(4-(1,4′-Bipiperidin-1′-ylmethyl)-2-(cyclopropylmethyl)-1-oxo-1,2-dihydroisoquinolin-6-yl)-N-cyclopropyl-4-methylbenzamide], the IC50 is reported as 5.01 nM.
`Cc1ccc(C(=O)NC2CC2)cc1-c1ccc2c(=O)n(Cc3ccc(C4=CCN(C(=O)OC(C)(C)C)CC4)cc3)ccc2c1` [Example 6, 4-{4-[6-(5-Cyclopropylcarbamoyl-2-methyl-phenyl)-1-oxo-1H-isoquinolin-2-ylmethyl]-phenyl}-3,6-dihydro-2H-pyridine-1-carboxylic acid, tert-butyl ester] gave an IC50 of 6.31 nM.
